Measured values reported in patent US12364670B2, “Cannabidiol-type cannabinoid compound” (JAZZ PHARMACEUTICALS RESEARCH UK LIMITED, priority 2019, dated 2025).

Legend:
[1] = test system: electroshock-induced generalised seizure threshold (MEST) in the mouse; test: Maximal electroshock seizure threshold (MEST) test in the mouse, Example 3; details: for CC50 ± SEM: vehicle CC50 24.3
Procedure: The efficacy of CBD-C6 was tested in a mouse model of generalised seizure, the maximal electroshock seizure threshold (MEST) test as described in Example 2.
Naïve mice were acclimatised to the procedure room in their home cages for up to 7 days, with food and water available ad libitum.
All animals were weighed at the beginning of the study and randomly assigned to treatment groups based on a mean distribution of body weight across groups.
The first animal within a treatment group was given a shock at the expected or estimated CC50 current. For subsequent animals, the current was lowered or raised depending on the convulsions outcome from the preceding animal.
Data generated from each treatment group were used to calculate the CC50±SEM values for the treatment group.
Vehicle: (5% ethanol, 5% solutol, 90% Saline) was prepared as follows: 1 mL of ethanol, 1 mL of solutol were warmed to 60° C., in 18 mL of saline (1:1:18).
The test compound, CBD-C6 was prepared according to the method described in Example 1. CBD-C6 was administered at 10, 30 and 100 mg/kg (i.p.) in a 1:1:18 ethanol:solutol:0.9% saline formulation.
CBD-C6 effects were also calculated as percentage change in CC50 from the vehicle control group. Significant difference between drug-treated animals and controls were assessed according to Litchfield and Wilcoxon (1949).

[2] = test system: electroshock-induced tonic hind limb extensor seizure (MEST) in the mouse; test: Maximal electroshock seizure threshold (MEST) test in the mouse, Example 2; details: for CC50 +/- SEM: vehicle CC50 21.0
Procedure: The efficacy of CBD-C6 was tested in a mouse model of seizure, the maximal electroshock seizure threshold (MEST) test.
The maximal electroshock seizure threshold (MEST) test is widely utilized preclinically to evaluate pro- and anti-convulsant properties of molecules (Loscher et al., 1991).
In the MEST test the ability of a drug to alter the seizure threshold current required to induce hind limb tonic extensor convulsions is measured according to an “up and down” method of shock titration (Kimball et al., 1957). An increase in seizure threshold is indicative of anti-convulsant effect.
Naïve mice were acclimatised to the procedure room in their home cages, with food and water available ad libitum.
Animals were dosed i.p. according to dose group.
The vehicle (10 ml/kg i.p. 60 min pre-treatment time) was 1:1:18 vehicle 5% ethanol, 5% kolliphor EL, 90% saline.
The test compound, CBD-C6 was administered at doses of 10, 30 and 100 mg/kg given at 10 ml/kg i.p. 180 min pre-treatment time.
Mice were individually assessed for the production of a tonic hind limb extensor seizure using a Hugo Sachs Electronik stimulator, which delivered an adjustable constant current (1-300 mA) of 0.1 s duration via corneal electrodes.
The stimulus intensity was varied by an ‘up and down’ method of shock titration.
This procedure continued for all mice within the treatment group. Data generated from treatment group of n=12 was used to calculate the CC50±s.e.m. values according to the method of Kimball et al. (1957).
Induction of seizure is measured as an all-or-nothing effect scored as either present (+) or absent (0) for each animal.
Data was analysed by comparing treated groups with the appropriate vehicle control using Fisher's Exact Probability tests.

[3] = 2.5 mg/kg i.p., 30 min pre-treatment
[4] = 10 mg/kg i.p., 60 min pre-treatment
[5] = 30 mg/kg i.p., 60 min pre-treatment
[6] = 100 mg/kg i.p., 120 min pre-treatment
[7] = 10 mg/kg i.p., 180 min pre-treatment
[8] = 30 mg/kg i.p., 180 min pre-treatment
[9] = 100 mg/kg i.p., 180 min pre-treatment

CN1C(=O)CN=C(c2ccccc2)c2cc(Cl)ccc21 [Diazepam, diazepam, reference compound]
% change from vehicle (CC50) [1, 3]: 255%
% change from vehicle (CC50) [2, 3]: 40%

CCCC(CCC)C(=O)[O-].[Na+] [Sodium Valproate, sodium valproate, reference compound]
% change from vehicle (CC50) ([1]; 250 mg/kg i.p., 30 min pre-treatment): 1057%

C=C(C)[C@@H]1CCC(C)=C[C@H]1c1c(O)cc(CCCCCC)cc1O [CBD-C6, Cannabidiol-C6]
% change from vehicle (CC50) [1, 4]: 27%
CC50 ± SEM [1, 4]: 30.8 ± 1.9 mA
% change from vehicle (CC50) [1, 5]: 29%
CC50 ± SEM [1, 5]: 31.5 ± 1.0 mA
% change from vehicle (CC50) [1, 6]: 239%
CC50 ± SEM [1, 6]: 82.5 ± 0.7 mA
effect on MEST (in words) ([1]; 10, 30 and 100 mg/kg i.p., compared to vehicle): dose-related increase in MEST
% change from vehicle (CC50) [2, 7]: 11%
CC50 +/- SEM [2, 7]: 23.4 mA
% change from vehicle (CC50) [2, 8]: 63%
CC50 +/- SEM [2, 8]: 34.3 mA
% change from vehicle (CC50) [2, 9]: 376%
CC50 +/- SEM [2, 9]: >100 mA
